Test results as given in PubChem BioAssay (NCI).
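1) Cells in 96-well plates. 2) Compound, 48 h, 5 concentrations. 3) Linear interpolation between surrounding doses. 4) Unreached endpoint = highest concentration. TGI: total growth inhibition.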

Legend:
Assay in all cases: NCI tumour cell line growth inhibition, 48 h
DLD-1 colon = system: DLD-1 colon
DMS 114 small cell lung = system: DMS 114 small cell lung
DMS 273 small cell lung = system: DMS 273 small cell lung
KM20L2 colon = system: KM20L2 colon
LXFL 529 NSCLC = system: LXFL 529 NSCLC
M19-MEL melanoma = system: M19-MEL melanoma
SNB-78 CNS = system: SNB-78 CNS
XF 498 CNS = system: XF 498 CNS
RXF-631 renal = system: RXF-631 renal
HOP-18 NSCLC = system: HOP-18 NSCLC

Row | SMILES | TGI (DLD-1 colon) | TGI (DMS 114 small cell lung) | TGI (DMS 273 small cell lung) | TGI (KM20L2 colon) | TGI (LXFL 529 NSCLC) | TGI (M19-MEL melanoma) | TGI (SNB-78 CNS) | TGI (XF 498 CNS) | TGI (RXF-631 renal) | TGI (HOP-18 NSCLC)
1 | CC(=O)OC1CC2C(C)(C)OC(=O)CC(OC(C)=O)[C@]2(C)C2CCC3(C)C(=CCC3[C@H]3COC(=O)C3)[C@]12C (some centres undefined) | > 100 µM | > 100 µM | > 100 µM | > 100 µM | > 100 µM | > 100 µM | > 100 µM | > 100 µM |  | 
2 | C[n+]1cc(C(O)c2ccc3c(c2)OCO3)c2ccccc2c1 (centres undefined) | > 100 µM | 83.5 µM | > 100 µM | > 100 µM |  | > 100 µM | > 100 µM |  | > 100 µM | 
3 | O=C1Nc2c(ccc(Cl)c2I)C1=O | 35.3 µM | 30.1 µM | 37 µM | > 100 µM | 27.5 µM | 24.1 µM |  | 29.9 µM |  | 
4 | CC(C)C(=O)/C=C/c1ccc(Br)cc1 | 20.3 µM | 37 µM | 28.7 µM | 21.5 µM | 33.8 µM | 28.9 µM | > 100 µM | 30.4 µM |  | 
5 | O=C(CSc1nnc(Cc2ccccc2)o1)Nc1ccc([N+](=O)[O-])cc1 | > 100 µM | 72.2 µM | > 100 µM | > 100 µM | > 100 µM | > 100 µM | > 100 µM |  |  | 
6 | COc1cc2ccc3c4cc(OC)c(OC(C)C)cc4cnc3c2cc1OC | > 100 µM | > 100 µM |  | > 100 µM | > 100 µM | > 100 µM | > 100 µM |  | > 100 µM | > 100 µM
7 | O=C(Cc1ccccc1)NN1C(=O)C(Cl)C1c1ccc(O)cc1 (centres undefined) | > 100 µM | > 100 µM | > 100 µM | > 100 µM |  | > 100 µM |  |  |  | > 100 µM
8 | COc1cc(C)c2c(c1C)OC(=O)c1c(C)c(Cl)c(O)c(C=O)c1O2 | 59 µM |  | 37.2 µM | 69.5 µM | 43.3 µM |  | 50.6 µM | 49.5 µM | 57.1 µM | 
9 | COC(=O)OCC1OC(N2C(=O)NC(=O)C(Br)C2N=[N+]=[N-])CC1OC(=O)OC (centres undefined) | > 100 µM | > 100 µM | > 100 µM | > 100 µM | > 100 µM | > 100 µM | > 100 µM | > 100 µM |  | 
10 | O=C1OC2(OC2c2ccccc2)c2ccccc21 (centres undefined) | > 100 µM | 11 µM | > 100 µM | > 100 µM | > 100 µM | > 100 µM |  | > 100 µM |  | 
11 | CCCC(C)NC1=C(NC(C)=O)C(=O)c2ccccc2C1=O (centres undefined) | > 100 µM |  | > 100 µM | > 100 µM | > 100 µM | > 100 µM | > 100 µM | > 100 µM |  | 
12 | O=C1c2ccccc2CCCCCCCCCCC12OCCCO2 | > 100 µM | 37.5 µM | > 100 µM | 71.7 µM | > 100 µM | > 100 µM | > 100 µM |  |  | > 100 µM
13 | CN1NC(=Nc2ccccc2)Sc2c1cnn(-c1ccccc1)c2=O | > 100 µM | > 100 µM | > 100 µM | > 100 µM | > 100 µM | > 100 µM |  |  |  | > 100 µM
14 | Oc1cc(C2OCCCO2)cc(O)c1O | > 100 µM | > 100 µM | > 100 µM | > 100 µM | > 100 µM | > 100 µM | > 100 µM |  | > 100 µM | > 100 µM
15 | NC1=NS(=O)(=O)Nc2nc(-c3ccc([N+](=O)[O-])o3)[nH]c21 | 32 µM | 34 µM | 38.7 µM | 58.6 µM | 25.7 µM | 32.4 µM |  |  |  | 30.3 µM
16 | COc1cc2cccc(N=Cc3cccc(OC)c3OC(C)C)c2cc1OC | 70 µM | 38.7 µM |  | > 100 µM | 31.1 µM | 48.2 µM | > 100 µM | 55.4 µM |  | 
17 | O=C1c2ccc3c4ccccc4n(Cc4ccccc4)c3c2C(=O)N1c1ccccc1 | 37.3 µM | 34.1 µM | 24.9 µM | 45.2 µM | 27.7 µM | 33.2 µM | 71.7 µM |  | 36.4 µM | 24.4 µM
18 | COc1ccc(O)cc1 | > 100 µM | > 100 µM |  | > 100 µM | > 100 µM | > 100 µM | > 100 µM | > 100 µM |  | 
